Calls of active or inactive are those of the source.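 The calls were made as follows: active = EC50 of 10 µM or lower, the dose giving half of maximal activation; inactive = the rest.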
The compounds below were run on MG132 cells, BRM-dependent luciferase reporter, 24 h (assay: SMARCA2 (BRM) activator potency, late-stage follow-up, cell-based, luminescence, dose response (AID 720660)).

With O=C(NCC1(c2nc(-c3ccccc3)cs2)CCOCC1)c1cccc(-c2noc(C(F)(F)F)n2)c1 as the compound, how does the EC50 read?
Its EC50 is > 91.2 µM (inactive).

Cc1ccc(Nc2nc(-c3ccccc3)c(C)s2)cc1 was tested. Which EC50 did it give?
Its EC50 is > 91.2 µM (inactive).

How did the EC50 turn out when Clc1ccc(Cc2nc(-c3ccccc3)cs2)cc1 was run?
Its EC50 is > 91.2 µM (inactive).

Which EC50 does the source give for COc1ccc(-c2nc(C#N)c(NC3CC3)o2)cc1 here?
Its EC50 is > 91.2 µM (inactive).

How did the EC50 turn out when Cc1cc(C)c2nc(NC(=O)C(C)C)sc2c1 was run?
The EC50 was > 91.2 µM (inactive).

Cc1nc(NC(=O)c2cccc(Br)c2)sc1C was tested. Which EC50 did it give?
Its EC50 is > 91.2 µM (inactive).

For Oc1ccccc1OCc1nc2ccccc2s1, which EC50 is on record?
The EC50 was > 91.2 µM (inactive).
